Measured values published in patent US6444819B1, “Benzylpiperazinyl and piperidinyl ethanone derivatives: dopamine receptor subtype specific ligands” (Neurogen Corporation, priority 1998, dated 2002).

Molecular target: T1, human D4 receptors (Homo sapiens, UniProt P21917)
T1 construct: expressed in transfected cells; host or cells: CHO cells
T1 sequence (P21917 1-419): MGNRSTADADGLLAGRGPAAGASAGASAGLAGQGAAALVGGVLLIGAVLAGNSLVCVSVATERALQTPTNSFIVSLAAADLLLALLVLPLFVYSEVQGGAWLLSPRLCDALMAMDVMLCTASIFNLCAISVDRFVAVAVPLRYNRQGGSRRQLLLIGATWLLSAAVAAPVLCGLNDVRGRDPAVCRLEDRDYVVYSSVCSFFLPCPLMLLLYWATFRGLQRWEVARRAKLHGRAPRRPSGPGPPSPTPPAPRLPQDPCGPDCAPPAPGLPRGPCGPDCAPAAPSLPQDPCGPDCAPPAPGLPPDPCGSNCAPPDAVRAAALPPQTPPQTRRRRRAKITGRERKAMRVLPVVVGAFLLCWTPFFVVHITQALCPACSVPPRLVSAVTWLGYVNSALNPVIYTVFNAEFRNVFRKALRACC
Experiment: D4 receptor binding assay (3H-YM 09151-2 displacement)
Conditions: CHO cell membranes with cloned human D4 receptor; 0.5 nM 3H-YM 09151-2
Method: The cloned membranes are homogenized in 100 volumes (wt/vol) of 0.05 M Tris-HCl buffer at 4° C. and pH 7.4 containing 120 mM NaCl, 1 mM EDTA and 5 mM MgCl2. The samples were centrifuged at 48,000×g then re-suspended and re-homogenized. The final tissue sample is kept frozen until use. The tissue is resuspended 1:20 (wt/vol) in 0.05 M Tris-HCl buffer containing 120 mM NaCl prior to use.
Non-specific binding is defined as that binding found in the presence of 1 mM spiperone; without further additions, nonspecific binding is less than 20% of total binding.

## CCCCN(C(=O)CN1CCN(Cc2ccc(Cl)cc2)CC1)c1ccccc1 [Compound 2, N-butyl-2-(4-(4-chlorobenzyl)piperazinyl)-N-phenylethanamide]
  Ki: 154 nM
